Measurements published in US20250230193A1, “CYCLIC COMPOUND HAVING SELECTIVE KRAS INHIBITORY EFFECT ON HRAS AND NRAS” (CHUGAI SEIYAKU KABUSHIKI KAISHA, priority 2022, published 2025).
Where a SMILES comes first, the peptide text is derived from it. Bridges are numbered along the chain shown (N, C = ends). [ ]: non-standard residue; d: D form. The star is where a group is joined. hPhe(3,5-F2-4-CF3) = N[C@@H](CCc1cc(F)c(C(F)(F)F)c(F)c1)C(=O)O; hPhe(3-Cl-4-CF3) = N[C@@H](CCc1ccc(C(F)(F)F)c(Cl)c1)C(=O)O; NPrPhe(4-CF3) = CCCN[C@@H](Cc1ccc(C(F)(F)F)cc1)C(=O)O; NMeGly(cPent) = CN[C@H](C(=O)O)C1CCCC1; NEtLeu = CCN[C@@H](CC(C)C)C(=O)O; αMeF = C[C@](N)(Cc1ccccc1)C(=O)O; NMeD = CN[C@@H](CC(=O)O)C(=O)O; NMeL = CN[C@@H](CC(C)C)C(=O)O; Morpholide = C1CN(*)CCO1; Ac5c = NC1(C(=O)O)CCCC1; Aze = O=C(O)[C@@H]1CCN1; Sar = CNCC(=O)O

Key:
[1] = target: GDP-bound HRAS wild-type protein (Homo sapiens, UniProt P01112); assay: Binding to HRAS by surface plasmon resonance (SPR), Single Cycle Kinetics; conditions: for HRAS/KRAS (ratio of KD value for HRAS to KD value for KRAS) / HRAS/KRAS (ratio of KD value with respect to HRAS to KD value with respect to KRAS): GDP-bound HRAS wild-type vs GDP-bound KRAS wild-type
GDP-bound HRAS wild-type protein, sequence (P01112 whole entry): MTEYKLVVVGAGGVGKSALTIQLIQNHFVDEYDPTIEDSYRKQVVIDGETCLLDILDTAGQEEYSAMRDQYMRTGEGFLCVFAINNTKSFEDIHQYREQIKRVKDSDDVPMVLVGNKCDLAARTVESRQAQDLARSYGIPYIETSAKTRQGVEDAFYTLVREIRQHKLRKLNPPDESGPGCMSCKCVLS

[2] = target: GDP-bound NRAS wild-type protein (Homo sapiens, UniProt P01111); assay: Binding to NRAS by surface plasmon resonance (SPR), Single Cycle Kinetics; conditions: for NRAS/KRAS (ratio of KD value for NRAS to KD value for KRAS) / NRAS/KRAS (ratio of KD value with respect to NRAS to KD value with respect to KRAS): GDP-bound NRAS wild-type vs GDP-bound KRAS wild-type
GDP-bound NRAS wild-type protein, sequence (P01111 whole entry): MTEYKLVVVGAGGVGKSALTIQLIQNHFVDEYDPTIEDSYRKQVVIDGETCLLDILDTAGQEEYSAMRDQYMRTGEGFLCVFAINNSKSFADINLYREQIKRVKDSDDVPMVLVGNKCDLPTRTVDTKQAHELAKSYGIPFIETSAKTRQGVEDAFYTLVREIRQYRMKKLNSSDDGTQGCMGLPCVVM

CCO[C@@H]1C[C@H]2C(=O)NC3(CC(C)(C)C3)C(=O)N(C)[C@@H](C3CCCC3)C(=O)N(C)[C@H](C(=O)N(C)C)CC(=O)N(C)[C@@H](COC)C(=O)N[C@@H]([C@@H](C)CC)C(=O)N(C)CC(=O)N(C)[C@H]3C/C=C\CCN(C3=O)[C@@H](Cc3ccc(C(F)(F)F)cc3)C(=O)N(C)CC(=O)N[C@@H](CCc3ccc(C(F)(F)F)c(Cl)c3)C(=O)N2C1 [PP1753]
HRAS/KRAS (ratio of KD value for HRAS to KD value for KRAS) ([1]; KD ratio, SPR): A (a compound having 10 or more and less than 20 is denoted as A)
NRAS/KRAS (ratio of KD value for NRAS to KD value for KRAS) ([2]; KD ratio, SPR): A (a compound having 10 or more and less than 20 is denoted as A)

CCC[C@H]1C(=O)N[C@@H]([C@@H](C)CC)C(=O)N(C)CC(=O)N(C)[C@H]2C/C=C\CCN(C2=O)[C@@H](Cc2ccc(C(F)F)cc2)C(=O)N(C)CC(=O)N[C@@H](CCc2ccc(Cl)c(Cl)c2)C(=O)N2C[C@H](OC3CCC3)C[C@H]2C(=O)NC2(CC(C)(C)C2)C(=O)N(C)[C@@H](C(CC)CC)C(=O)N(C)[C@H](C(=O)N(C)C)CC(=O)N1C [PP2643]
HRAS/KRAS (ratio of KD value with respect to GDP-bound HRAS wild-type protein to KD value with respect to KRAS) ([1]; class symbols): A (a compound having 10 or more and less than 20 is denoted as A)
NRAS/KRAS (ratio of KD value with respect to GDP-bound NRAS wild-type protein to KD value with respect to KRAS) ([2]; class symbols): AA (a compound having 20 or more is denoted as AA)

CCOC[C@H]1C(=O)N[C@@H]([C@@H](C)CC)C(=O)N(C)CC(=O)N(C)[C@H]2C/C=C\CCN(C2=O)[C@@H](Cc2ccc(C)cc2)C(=O)N(C)CC(=O)N[C@@H](CCc2cc(F)c(C(F)(F)F)c(F)c2)C(=O)N2C[C@H](OCC)C[C@H]2C(=O)NC2(CC(C)(C)C2)C(=O)N(C)[C@@H](C2CCCC2)C(=O)N(C)[C@H](C(=O)N(CC)CC)CC(=O)N1C [PP2408]
HRAS/KRAS (ratio of KD value with respect to HRAS to KD value with respect to KRAS) ([1]; SPR): A (a compound having 10 or more and less than 20 is denoted as A)
NRAS/KRAS (ratio of KD value with respect to NRAS to KD value with respect to KRAS) ([2]; SPR): A (a compound having 10 or more and less than 20 is denoted as A)

CCCN1C(=O)CN(C)C(=O)CNC(=O)[C@H]([C@@H](C)CC)NC(=O)[C@H](CC(C)C)N(CC)C(=O)C[C@@H](C(=O)N2CCOCC2)N(C)C(=O)[C@H](C2CCCC2)N(C)C(=O)C2(CCCC2)NC(=O)[C@@H]2CCCN2C(=O)[C@H](CCc2ccc(C(F)(F)F)c(Cl)c2)NC(=O)CN(C)C(=O)[C@@H]1Cc1ccc(C(F)(F)F)cc1 [PP1967] ([NEtLeu]IG[Sar][NPrPhe(4-CF3)][Sar][hPhe(3-Cl-4-CF3)]P[Ac5c][NMeGly(cPent)][NMeD]-Morpholide; lactam N-11)
HRAS/KRAS (ratio of KD value for HRAS to KD value for KRAS) ([1]; KD ratio, SPR): B (a compound having 3 or more and less than 10 is denoted as B)
NRAS/KRAS (ratio of KD value for NRAS to KD value for KRAS) ([2]; KD ratio, SPR): B (a compound having 3 or more and less than 10 is denoted as B)

CCCN1C(=O)CN(C)C(=O)[C@@H]2CCN2C(=O)[C@H]([C@@H](C)CC)NC(=O)[C@H](CC(C)C)N(C)C(=O)C[C@@H](C(=O)N2CCOCC2)N(C)C(=O)[C@H](C2CCCC2)N(C)C(=O)[C@](C)(Cc2ccccc2)NC(=O)[C@@H]2CCCN2C(=O)[C@H](CCc2cc(F)c(C(F)(F)F)c(F)c2)NC(=O)CN(C)C(=O)[C@@H]1Cc1ccc(C(F)(F)F)cc1 [PP0778] ([NMeL]I[Aze][Sar][NPrPhe(4-CF3)][Sar][hPhe(3,5-F2-4-CF3)]P[αMeF][NMeGly(cPent)][NMeD]-Morpholide; lactam N-11)
HRAS/KRAS (ratio of KD value with respect to GDP-bound HRAS wild-type protein to KD value with respect to KRAS) ([1]; SPR): B (a compound having 3 or more and less than 10 is denoted as B)
NRAS/KRAS (ratio of KD value with respect to GDP-bound NRAS wild-type protein to KD value with respect to KRAS) ([2]; SPR): B (a compound having 3 or more and less than 10 is denoted as B)

CCCOC[C@H]1C(=O)N[C@@H]([C@@H](C)CC)C(=O)N(C)CC(=O)N(C)[C@H]2C/C=C\CCN(C2=O)[C@@H](Cc2ccc(C(F)(F)F)cc2)C(=O)N(C)CC(=O)N[C@@H](CCc2ccc(C(F)(F)F)c(OC)c2)C(=O)N2C[C@@H](C)C[C@H]2C(=O)NC2(CC(C)(C)C2)C(=O)N(C)[C@@H](C2CCCC2)C(=O)N(C)[C@H](C(=O)N(C)CC)CC(=O)N1C [PP1995]
HRAS/KRAS (ratio of KD value for HRAS to KD value for KRAS) ([1]; KD ratio, SPR): B (a compound having 3 or more and less than 10 is denoted as B)
NRAS/KRAS (ratio of KD value for NRAS to KD value for KRAS) ([2]; KD ratio, SPR): A (a compound having 10 or more and less than 20 is denoted as A)

CC[C@H](C)[C@@H]1NC(=O)[C@H](COC)N(C)C(=O)C[C@@H](C(=O)N2CCOCC2)N(C)C(=O)[C@H](C2CCCC2)N(C)C(=O)C2(CCCC2)NC(=O)[C@@H]2CCCN2C(=O)[C@H](CCc2ccc(C(F)(F)F)c(Cl)c2)NC(=O)CN(C)C(=O)[C@H](Cc2ccc(F)cc2)N2CCCCC[C@@H](C2=O)N(C)C(=O)CN(C)C1=O [PP0960]
HRAS/KRAS (ratio of KD value with respect to HRAS to KD value with respect to KRAS) ([1]; KD ratio, SPR): B (a compound having 3 or more and less than 10 is denoted as B)
NRAS/KRAS (ratio of KD value with respect to NRAS to KD value with respect to KRAS) ([2]; KD ratio, SPR): B (a compound having 3 or more and less than 10 is denoted as B)
